Results on eight molecules are retold here after patent publication US7893068B2, “Physiologically active substances” (Mercian Corporation, priority 2002, dated 2011).

One data set has as its system VEGF promoter. The data set can be described thus: VEGF transcription-suppressing activity (VEGF promoter-PLAP reporter, U251/1-8 cells, hypoxia). Type of data set: cell-based. As to conditions: Homo sapiens, read-out: VEGF transcription-suppressing activities (IC50: nM). The source says: In order to prepare reporter system reflecting transcription from VEGF promoter, VEGF promoter sequence was cloned, and inserted in secretory alkaline phosphatase (PLAP) vector to construct reporter vector.
In order to obtain the promoter region of human VEGF, VEGF genomic DNA was cloned from phage library. PCR primers having the sequences described in Sequence Numbers 1 and 2 were designed based on VEGF cDNA (GenBank accession number: X62568) and a fragment having about 340 bp was obtained by carrying out PCR. Human genomic phage library (Human genomic library, Clontech Co.) was screened using this as a probe to obtain VEGF genomic DNA. The DNA was digested by EcoRI, and the resultant fragments were inserted in the EcoRI site of pUC18. Finally, pUC18-VEGFA containing about 5.4 kb of VEGF 5′ flanking region was obtained. The pUC18-VEGFA was digested by KpnI/NheI, VEGF promoter region of about 2.3 kb obtained was inserted in the multi cloning site KpnI/NheI of secretory alkaline phosphatase (PLAP) vector (Goto et al, Mol. Pharmacol., 49, 860-873, 1996), and thus, VEGF-PLAP vector was constructed.
The above-mentioned VEGF-PLAP vector was transfected in the U251 cell cultured in the DULBECCO-modified eagle medium (DMEM; manufactured by SIGMA Co., Ltd.) containing 10% fetal calf serum, and the cells were cultured in the presence of 1 mg/mL G418 (Merck Co.) to establish G418 resistant stable clone (U251/1-8 cell).
It was confirmed that U251/1-8 cell secreted PLAP under hypoxic condition (2% O2 incubator) in the same manner as in the report (Cell. Mol. Biol. Res. 40, 35-39, 1994) and was a reporter system reflecting the transcription from VEGF promoter. The screening of the compound suppressing VEGF production which was induced by hypoxic stimulation was carried out below using the clone.
In order to remove the influence of alkaline phosphates in serum, U251/1-8 cells were rinsed twice with the adequate amount of PBS (Phosphate buffered saline), diluted in the DMEM medium containing 10% of serum in which alkaline phosphates was inactivated by the treatment of 65° C. for 20 min., and dispensed in 96-well plates by 4×10^4 cells/180 μL.
After culturing at 37° C. overnight in a CO2 incubator (5% CO2), 20 μL of the above-mentioned incubation solution containing the test compound diluted with 3-fold succession was added, and then they were incubated in a hypoxic (2% […]) incubator for 18 hours. With respect to the PLAP activity in the culture supernatants, 10 μL of the supernatants was added to 50 μL of 0.28 M Na2CO3—NaHCO3 buffer solution (pH 10.0, 8.0 mM MgSO4), and finally 50 μL of alkaline phosphatase substrate (LUMISTEIN, Genomescience Co.) was added. After reacting for one hour, the alkaline phosphatase activity of the PLAP was measured by detecting the chemical luminescence by a micro plate reader (Perkin-Elmer Co.). The PLAP activity under normoxia was set as 0%, the PLAP activity of cell which was treated under hypoxia was set as 100%, and the concentration suppressing the PLAP activity by 50% was set as the IC50 value of PLAP. The IC50 values of 11107D derivatives shown in Examples were measured, and the IC50 values of representative 11107D derivatives are shown in Table 1.

Data set [1] concerns WiDr human colon cancer cells. Description: Growth inhibitory activities on WiDr human colon cancer cells (MTT). The class given is cell-based. As to conditions: 72 h, three days incubation. The protocol:
WiDr human colon cancer cells cultured in DULBECCO-modified eagle medium (DMEM; manufactured by SIGMA Co., Ltd.) containing 10% fetal calf serum, penicillin (100 unit/mL) and streptomycin (100 μg/mL) were dispensed in 96-well plates by 2×10^3 cells/well. After culturing overnight in a CO2 incubator, 20 μL of the above-mentioned incubation solution containing the test compound diluted with 3-fold succession was added, followed by incubation. After three days, 50 μL of 3.3 mg/mL MTT solution was added, followed by culturing for further one hour. Then, formazan formed by the reduction by the action of living cells was extracted with 100 μL of DMSO, the absorbance (A540/A660) was determined and was set as the index of the number of living cells.
The concentrations of the compounds of the formula (I) at which the growth of WiDr human colon cancer cells are inhibited 50% were determined.

The nature of data set [2]: Stability in an aqueous solution (HPLC residual ratio). As to conditions: for Peak area (mAU × sec) after 24 hours / The residual ratios (%): Britton-Robinson's buffer pH 7, 25° C., 24 hours; for Peak area (mAU × sec) initial: Britton-Robinson's buffer pH 7, before incubation.
Description: The compounds of the formula (I) were dissolved in DMSO in concentrations of 10 to 20 mM, and these were diluted about 500 folds with Britton-Robinson's buffer solution of pH 7. Each of the solutions as sample solutions was incubated at 25° C. for 24 hours.
The sample solutions were analyzed by high performance liquid chromatography before and after incubation, and the residual ratios of the tested substances in the sample solutions after incubation were determined from the peak areas of the obtained chromatograms.

Read-outs that look alike come from different tables or passages of the source.

Regarding `CCC(O)C(C)C1OC1CC(C)(O)/C=C/C=C(\C)C1OC(=O)CC(O)CCC(C)(O)C(OC(=O)CCc2ccccc2)/C=C/C1C` (centres unmarked) [Compound 142, (8E,12E,14E)-3,6,16,21-Tetrahydroxy-6,10,12,16,20-pentamethyl-7-(3-phenylpropanoyl)oxy-18,19-epoxytricosa-8,12,14-trien-11-olide], the IC50 (commonly the point on the concentration scale where inhibition reaches its midpoint) in the data set on VEGF promoter (U-251, 18 h) was found to be 11.2 nM. This molecule also came in with an IC50 in data set [1] of 4.9 nM. In data set [2], the “Peak area (mAU × sec) after 24 hours” value amounted to 3705 mAU × sec, the “The residual ratios (%)” value stood at 94.6% and the “Peak area (mAU × sec) initial” value was 3916 mAU × sec.
As to `CCC(O)C(C)C1OC1CC(C)(O)/C=C/C=C(\C)C1OC(=O)CC(O)CCC(C)(O)C(OC(=O)N2CCN(Cc3ccccc3)CC2)/C=C/C1C` (centres unmarked) [Compound 24, (8E,12E,14E)-7-((4-Benzylpiperazin-1-yl)carbonyl)oxy-3,6,16,21-tetrahydroxy-6,10,12,16,20-pentamethyl-18,19-epoxytricosa-8,12,14-trien-11-olide], the IC50 is 5.5 nM in the data set on VEGF promoter (U-251, 18 h) and 5.3 nM in data set [1].
Taken in the same sequence, the figures for `CCC(O)C(C)C1OC1CC(C)(O)/C=C/C=C(\C)C1OC(=O)CC(O)CCC(C)(O)C(OC(=O)N2CCCN(Cc3ccccc3)CC2)/C=C/C1C` (centres unmarked) [Compound 17, (8E,12E,14E)-7-((4-Benzylhomopiperazin-1-yl)carbonyl)oxy-3,6,16,21-tetrahydroxy-6,10,12,16,20-pentamethyl-18,19-epoxytricosa-8,12,14-trien-11-olide] were 3.9 nM and 2.6 nM.
As to `CCOC1(C)CCC(O)CC(=O)OC(/C(C)=C/C=C/C(C)(O)CC2OC2C(C)C(O)CC)C(C)/C=C/C1OC(=O)N1CCN(C)CC1` (centres unmarked) [Compound 127, (8E,12E,14E)-6-Ethoxy-3,16,21-trihydroxy-6,10,12,16,20-pentamethyl-7-((4-methylpiperazin-1-yl)carbonyl)oxy-18,19-epoxytricosa-8,12,14-trien-11-olide], the IC50 with VEGF promoter (U-251, U251/1-8 cells, hypoxic incubator 18 hours, PLAP activity) was found to be 2.4 nM; in data set [1], 0.7 nM.
Regarding `CCC(O)C(C)C1OC1CC(C)(O)/C=C/C=C(\C)C1OC(=O)CC(O)CCC(C)(O)C(OC(=O)N2CCN(CC3CC3)CC2)/C=C/C1C` (centres unmarked) [Compound 27, (8E,12E,14E)-7-((4-(Cyclopropylmethyl)piperazin-1-yl)carbonyl)oxy-3,6,16,21-tetrahydroxy-6,10,12,16,20-pentamethyl-18,19-epoxytricosa-8,12,14-trien-11-olide], the IC50 with VEGF promoter (U-251, 18 h) turned out to be 3.7 nM; in data set [1], 1.2 nM.
Regarding `CCC(OC)C(C)C1OC1CC(C)(O)/C=C/C=C(\C)C1OC(=O)CC(O)CCC(C)(O)C(OC(=O)N2CCN(C(C)C)CC2)/C=C/C1C` (centres unmarked) [Compound 130, (8E,12E,14E)-3,6,16-Trihydroxy-7-((4-isopropylpiperazin-1-yl)carbonyl)oxy-21-methoxy-6,10,12,16,20-pentamethyl-18,19-epoxytricosa-8,12,14-trien-11-olide], in data set [2], the “Peak area (mAU × sec) after 24 hours” value is on record as 4583 mAU × sec, the “The residual ratios (%)” value is listed as 95.1% and the “Peak area (mAU × sec) initial” value is 4819 mAU × sec.
In the case of `CCC(O)C(C)C1OC1CC(C)(O)/C=C/C=C(\C)C1OC(=O)CC(O)CCC(C)(OC)C(OC(=O)N2CCCN(C3CCCCC3)CC2)/C=C/C1C` (centres unmarked) [Compound 95, (8E,12E,14E)-7-((4-Cyclohexylhomopiperazin-1-yl)carbonyl)oxy-3,16,21-trihydroxy-6-methoxy-6,10,12,16,20-pentamethyl-18,19-epoxytricosa-8,12,14-trien-11-olide], the IC50 in the data set with VEGF promoter (U-251, 18 h) stood at 1.2 nM; in data set [1] it was 0.5 nM.
Take `CCCN1CCN(C(=O)OC2/C=C/C(C)C(/C(C)=C/C=C/C(C)(O)CC3OC3C(C)C(O)CC)OC(=O)CC(O)CCC2(C)O)CC1` (centres unmarked) [Compound 25, (8E,12E,14E)-3,6,16,21-Tetrahydroxy-6,10,12,16,20-pentamethyl-7-((4-propylpiperazin-1-yl)carbonyl)oxy-18,19-epoxytricosa-8,12,14-trien-11-olide]: the IC50 came out at 2.9 nM with VEGF promoter (U-251, 18 h) and 1.2 nM in data set [1].
